What was measured:
[1] = system: sub-genomic HCV replicon of genotype 1a (cell line W11.8); assay: Activity determination using the ELISA and the sub-genomic replicon 1a cell line (NS5A protein level); type: cell-based; conditions: Hepatitis C virus
Excerpt: Activity Determination Using the ELISA and the Sub-Genomic Replicon 1a Cell Line
The cell line W11.8 containing the sub-genomic HCV replicon of genotype 1a is used to determine the potency of the drugs. The RNA replication in presence of different drug concentrations is indirectly measured in this cell line by the level of NS5A protein content upon drug treatment for four days. It is shown that the level of the NS5A protein correlates well with the level of HCV RNA in the replicon cell line. Cells are split twice a week in order to keep the confluence state below 85% of the culture flask surface area. The culture media used for cell passaging consists of DMEM-10% foetal bovine serum with 100 UI/mL penicillin, 100 μg/mL streptomycin, 2 mM glutamine, 1 mM sodium pyruvate, non-essential amino acids (1×) and 600 μg/mL of G418 final concentrations. Monolayer of the W11.8 cells is trypsinized and cells are counted. Cells are diluted at 50,000 cells/mL with complete DMEM without G418, then approximately 5,000 viable cells (100 μL) are plated per well in a white opaque 96-well microtiter plate. After an incubation period of 2-4 hours at 37° C. in a 5% CO2 incubator, compounds are added at various concentrations. Drugs are resuspended in DMSO at a stock concentration of 10 mM. Then, drugs are serially diluted at twice the final concentration in the same medium. One volume (100 μL) of each drug dilution is then added to each well that contains cells. A control compound is used as an internal standard for each plate assay. Sixteen wells are used as control (0% inhibition) without drug. […] Values from 100% inhibited wells were averaged and used as the background value. Cells are further incubated for four days at 37° C. in a 5% CO2 incubator. Following the incubation time of four days, the media is removed and wells are washed once with 150 μL of PBS at room temperature for five minutes. Cells are then fixed for five minutes using 150 μL per well of cold (−20° C.) fixative solution (50% methanol/50% acetone mix). Cells are then washed twice with 150 μL of PBS (phosphate buffered saline) per well, following the addition of 150 μL of blocking solution, cells are incubated for one hour at 37° C. to block non-specific sites. The blocking solution is removed and cells are washed twice with 150 μL of PBS per well and once with 150 μL of PBSTS solution (PBS/0.1% Triton X-100/0.02% SDS) per well. […] Then, substrate solution (100 μl, SuperSignal ELISA Pico Chemiluminescent Substrate, Fisher Cat. No. 37069) is added in each well and plates are incubated 60 minutes at room temperature prior to reading the luminescence (relative light units) on the Analyst HT plate reader. The percentage of inhibition at each drug concentration tested (in duplicate) is calculated.

[2] = system: HCV (1b) replicon, Huh-ET cells; assay: Cell-based luciferase reporter HCV (1b) RNA replication assay; conditions: Hepatitis C virus; for EC50: 96 h, HCV 1b replicon, luciferase, 4 days incubation, read-out: EC50_1b; for IC50: sub-genomic replicon 1b cell line
Excerpt: Cell-Based Luciferase Reporter HCV (Ib) RNA Replication Assay Cell Culture
Replicon cell lines Huh-5.2 are derived from the Huh-7 hepatocarcinoma cell line are maintained in culture as generally described in Krieger, N; Lohmann, V; Bartenschlager, R. Enhancement of hepatitis C virus RNA replication by cell culture-adaptive mutations. J. Virol. 2001, 75, 4614-4624. The Huh-5.2 cells contain the highly cell culture-adapted replicon I389luc-ubi-neo/NS3-375.1 construct that carries, in addition to the neomycin gene, an integrated copy to the firefly luciferase gene (Krieger, N; Lohmann, V; Bartenschlager, R. Enhancement of hepatitis C virus RNA replication by cell culture-adaptive mutations. J. Virol. 2001, 75, 4614-4624). This cell line allows measurement of HCV RNA replication and translation by measuring luciferase activity. It has been previously shown that the luciferase activity tightly follows the replicon RNA level in these cells (Krieger, N; Lohmann, V; Bartenschlager, R. Enhancement of hepatitis C virus RNA replication by cell culture-adaptive mutations. J. Virol. 2001, 75, 4614-4624). The Huh-ET cell line has the same features as those mentioned for Huh-5.2 cell line, except that ET cells are more robust and contain an adaptative mutation in the HCV NS4B gene instead of NS5A. Both cell lines are maintained in cultures at a sub-confluent level (<85%) as the level of replicon RNA is highest in actively proliferating cells. The culture media used for cell passaging consist of DMEM (Gibco BRL Laboratories, Mississauga, ON, Canada) supplemented with 10% foetal bovine serum with 1% penicilin/streptomycin, 1% glutamine, 1% sodium pyruvate, 1% non-essential amino acids, and 180 μg/ml of G418 final concentration. Cells are incubated at 37° C., in an atmosphere of 5% CO2 and passaged twice a week to maintain sub-confluence.
Approximately 3000 viable Huh-ET cells (100 μl) are plated per well in a white opaque 96-well microtiter plate. The cell culture media used for the assay is the same as described above except that it contains no G418 and no phenol red. After an incubation period of 3-4 hours at 37° C. in a 5% CO2 incubator, compounds (100 μl) are added at various concentrations. Cells are then further incubated for 4 days at 37° C. in a 5% CO2 incubator. Thereafter, the culture media is removed and cells are lysed by the addition of 95 μL of the luciferase buffer (luciferin substrate in buffered detergent). Cell lysates are incubated at room temperature and protected from direct light for at least 10 minutes. Plates are read for luciferase counts using a luminometer (Wallac MicroBeta Trilux, Perkin Elmer™, MA, USA).
Curves are fitted to data points using nonlinear regression analysis, and IC50s are interpolated from the resulting curve using GraphPad Prism software, version 2.0 (GraphPad Software Inc., San Diego, Calif., USA).

Row | SMILES | IC50 [1] [pM] | EC50 [2] [pM] | IC50 [2] [pM]
1 | COC(=O)N[C@H](C(=O)N1C[C@@H](C)C[C@H]1c1nc(-c2ccc(-c3ccc(-c4ccc5nc([C@@H]6C[C@H](C)CN6C(=O)[C@@H](NC(=O)OC)C(C)C)[nH]c5c4)cc3)cc2)c[nH]1)C(C)C [Compound 5, ((S)-1-{(2S,4S)-2-[5-(4′-{2-[(2S,4S)-1-((S)-2-Methoxycarbonylamino-3-methyl-butyryl)-4-methyl-pyrrolidin-2-yl]-1H-imidazol-4-yl}-biphenyl-4-yl)-1H-benzoimidazol-2-yl]-4-methyl-pyrrolidine-1-carbonyl}-2-methyl-propyl)-carbamic acid methyl ester] | 4.1 | ≤ 5000 | 5
2 | COC(=O)NC(C(=O)N1[C@@H](C)CC[C@H]1c1nc2cc(-c3ccc(-c4ccc(-c5cnc([C@@H]6CC[C@H](C)N6C(=O)[C@@H](NC(=O)OC)C(C)C)[nH]5)cc4)cc3)ccc2[nH]1)C(C)C (stereo partly drawn) [Compound 13, Methyl N-[(1S)-1-[(2S,5S)-2-[4-[4-[4-[2-[(2S,5S)-1-[2-(methoxycarbonylamino)-3-methyl-butanoyl]-5-methyl-pyrrolidin-2-yl]-1H-benzimidazol-5-yl]phenyl]phenyl]-1H-imidazol-2-yl]-5-methyl-pyrrolidine-1-carbonyl]-2-methyl-propyl]carbamate] | 36 | ≤ 5000 | 2.6
3 | COC(=O)N[C@H](C(=O)N1C[C@@H](C)C[C@H]1c1nc(-c2ccc(-c3ccc(-c4ccc5[nH]c([C@@H]6CC[C@H](C)N6C(=O)[C@@H](NC(=O)OC)C(C)C)nc5c4)cc3)cc2)c[nH]1)C(C)C [Compound 18] | 8.5 | ≤ 5000 | 8.5

Reference: patent US8779156B2, “Analogues for the treatment or prevention of flavivirus infections” (Vertex Pharmaceuticals Incorporated, priority 2010, dated 2014)
